According to patent US8765741B2, “5,6-dihydro-1H-pyridin-2-one compounds” (Anadys Pharmaceuticals, Inc., priority 2007, dated 2014):

Biological target: NS5B polymerase (Hepatitis C virus genotype 1b, UniProt P26663)
Assay: biochemical
Settings: NS5B polymerase inhibition; 20 nM enzyme, 75 min at 28° C.; read-out: IC50

Chain of NS5B polymerase (P26663 2420-3010): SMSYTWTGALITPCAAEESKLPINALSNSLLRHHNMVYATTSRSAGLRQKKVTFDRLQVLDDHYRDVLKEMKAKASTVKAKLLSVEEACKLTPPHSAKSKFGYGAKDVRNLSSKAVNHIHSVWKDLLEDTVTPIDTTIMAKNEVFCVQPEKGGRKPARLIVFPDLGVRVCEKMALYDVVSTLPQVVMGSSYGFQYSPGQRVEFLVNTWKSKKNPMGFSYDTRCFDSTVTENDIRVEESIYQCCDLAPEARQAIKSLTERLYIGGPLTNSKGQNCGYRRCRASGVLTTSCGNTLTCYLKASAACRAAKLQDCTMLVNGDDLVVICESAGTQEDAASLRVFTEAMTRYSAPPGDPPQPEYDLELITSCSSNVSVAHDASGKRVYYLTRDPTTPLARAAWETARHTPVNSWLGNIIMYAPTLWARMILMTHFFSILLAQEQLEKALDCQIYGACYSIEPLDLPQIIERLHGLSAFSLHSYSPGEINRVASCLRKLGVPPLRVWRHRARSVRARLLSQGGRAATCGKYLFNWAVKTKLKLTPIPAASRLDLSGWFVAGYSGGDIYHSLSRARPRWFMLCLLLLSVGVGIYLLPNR

Row | Compound | IC50
1 | CS(=O)(=O)Nc1ccc2c(c1)S(=O)(=O)N=C(C1=C(O)[C@@H]3[C@H]4CC[C@H](CC4)[C@@H]3N(Cc3ccc(F)cc3)C1=O)N2 (relative stereo) [Example 50, cis-N-{3-[3-(4-Fluoro-benzyl)-6-hydroxy-4-oxo-3-aza-tricyclo[6.2.2.0^2,7]dodec-5-en-5-yl]-1,1-dioxo-1,4-dihydro-1λ^6-benzo[1,2,4]thiadiazin-7-yl}-methanesulfonamide] | < 20 nM
2 | CS(=O)(=O)Nc1ccc2c(c1)S(=O)(=O)N=C(C1=C(O)[C@@H]3C4CCC(CC4)[C@@H]3N(Cc3ccc(F)cc3)C1=O)N2 [Example 49, N-{3-[(2S,7R)-3-(4-Fluoro-benzyl)-6-hydroxy-4-oxo-3-aza-tricyclo[6.2.2.0^2,7]dodec-5-en-5-yl]-1,1-dioxo-1,4-dihydro-1λ^6-benzo[1,2,4]thiadiazin-7-yl}-methanesulfonamide] | < 20 nM
3 | O=C1C(C2=NS(=O)(=O)c3cc(NS(=O)(=O)c4cccnc4)ccc3N2)=C(O)C2C([C@@H]3CC[C@H]2C3)N1Cc1ccc(F)cc1 (stereo partly drawn) [Example 54, Pyridine-3-sulfonic acid{3-[(1R,2S,7R,8S)-3-(4-fluoro-benzyl)-6-hydroxy-4-oxo-3-aza-tricyclo[6.2.1.0^2,7]undec-5-en-5-yl]-1,1-dioxo-1,4-dihydro-1λ^6-benzo[1,2,4]thiadiazin-7-yl}-amide] | 100 to 1000 nM
4 | NS(=O)(=O)Nc1ccc2c(c1)S(=O)(=O)N=C(C1=C(O)[C@@H]3[C@H]4CC[C@H](C4)[C@@H]3N(Cc3ccc(F)cc3)C1=O)N2 [Example 55, (1R,2S,7R,8S)-N-{3-[3-(4-Fluoro-benzyl)-6-hydroxy-4-oxo-3-aza-tricyclo[6.2.1.0^2,7]undec-5-en-5-yl]-1,1-dioxo-1,4-dihydro-1λ^6-benzo[1,2,4]thiadiazin-7-yl}-sulfamide] | < 20 nM
5 | CS(=O)(=O)Nc1ccc2c(c1)S(=O)(=O)N=C(C1=C(O)[C@@H]3[C@H]4CC[C@H](C4)[C@@H]3N(Cc3ccccc3)C1=O)N2 [Example 56, (1R,2S,7R,8S)-N-[3-(3-Benzyl-6-hydroxy-4-oxo-3-aza-tricyclo[6.2.1.0^2,7]undec-5-en-5-yl)-1,1-dioxo-1,4-dihydro-1λ^6-benzo[1,2,4]thiadiazin-7-yl]-methanesulfonamide] | < 20 nM
6 | CC(C)CN1C(=O)C(C2=NS(=O)(=O)c3cc(NS(C)(=O)=O)ccc3N2)=C(O)[C@@H]2[C@H]3CC[C@H](C3)[C@@H]21 [Example 57, (1R,2S,7R,8S)-N-[3-(6-Hydroxy-3-isobutyl-4-oxo-3-aza-tricyclo[6.2.1.0^2,7]undec-5-en-5-yl)-1,1-dioxo-1,4-dihydro-1λ^6-benzo[1,2,4]thiadiazin-7-yl]-methanesulfonamide] | 20 to 100 nM
7 | CS(=O)(=O)Nc1ccc2c(c1)S(=O)(=O)N=C(C1=C(O)[C@@H]3[C@H]4CC[C@H](C4)[C@@H]3N(Cc3ccc(F)c(Cl)c3)C1=O)N2 [Example 58, (1R,2S,7R,8S)-N-{3-[3-(3-Chloro-4-fluoro-benzyl)-6-hydroxy-4-oxo-3-aza-tricyclo[6.2.1.0^2,7]undec-5-en-5-yl]-1,1-dioxo-1,4-dihydro-1λ^6-benzo[1,2,4]thiadiazin-7-yl}-methanesulfonamide] | < 20 nM
8 | Cc1ccc(CN2C(=O)C(C3=NS(=O)(=O)c4cc(NS(C)(=O)=O)ccc4N3)=C(O)[C@@H]3[C@H]4CC[C@H](C4)[C@@H]32)cc1F [Example 60, N-{3-[(1R,2S,7R,8S)-3-(3-Fluoro-4-methyl-benzyl)-6-hydroxy-4-oxo-3-aza-tricyclo[6.2.1.0^2,7]undec-5-en-5-yl]-1,1-dioxo-1,4-dihydro-1λ^6-benzo[1,2,4]thiadiazin-7-yl}-methanesulfonamide] | 20 to 100 nM
9 | O=C1C(C2=NS(=O)(=O)c3cc(Br)cnc3N2)=C(O)C2C([C@@H]3CC[C@H]2C3)N1Cc1ccc(F)cc1 (stereo partly shown) [Example 61] | 1000 to 100000 nM
10 | CS(=O)(=O)Nc1cnc2c(c1)S(=O)(=O)N=C(C1=C(O)[C@@H]3[C@H]4CC[C@H](C4)[C@@H]3N(Cc3ccc(F)cc3)C1=O)N2 [Example 62, N-{3-[(1R,2S,7R,8S)-3-(4-Fluoro-benzyl)-6-hydroxy-4-oxo-3-aza-tricyclo[6.2.1.0^2,7]undec-5-en-5-yl]-1,1-dioxo-1,4-dihydro-1λ^6-pyrido[2,3-e][1,2,4]thiadiazin-7-yl}-methanesulfonamide] | 20 to 100 nM
11 | O=C1C(C2=NS(=O)(=O)c3cccnc3N2)=C(O)[C@@H]2[C@H]3CC[C@H](C3)[C@@H]2N1Cc1ccc(F)cc1 [Example 63, (1R,2S,7R,8S)-5-(1,1-Dioxo-1,4-dihydro-1λ^6-pyrido[2,3-e][1,2,4]thiadiazin-3-yl)-3-(4-fluoro-benzyl)-6-hydroxy-3-aza-tricyclo[6.2.1.0^2,7]undec-5-en-4-one] | 100 to 1000 nM
12 | CS(=O)(=O)Nc1ccc2c(c1)S(=O)(=O)N=C(C1=C(O)[C@@H]3[C@H]4CC[C@H](C4)[C@@H]3N(CCC3CC3)C1=O)N2 [Example 66, N-{3-[(1R,2S,7R,8S)-3-(2-Cyclopropyl-ethyl)-6-hydroxy-4-oxo-3-aza-tricyclo[6.2.1.0^2,7]undec-5-en-5-yl]-1,1-dioxo-1,4-dihydro-1λ^6-benzo[1,2,4]thiadiazin-7-yl}-methanesulfonamide] | 20 to 100 nM

Test system: HCV replicon
Assay: HCV replicon assay
Type: cell-based
Settings: Hepatitis C virus; Example numbers 64 and 65 in Table 1; HCV replicon cells, 72 hours exposure; read-out: EC50 (HCV replicon inhibition)
Protocol: HCV Replicon Assay (Replicon EC50 (μM))
The cell culture component of the assay is performed essentially as described by Bartenschlager et al., Hepatology 2002, 35, 694-703, wherein exponentially growing HCV Huh-7/C24 replicon cells are seeded at 4.5×10^3 cells/well in 96 well plates and 24 hours later are treated with six point half-log concentration of compound. After 72 hours exposure the media is discarded from the compound assay plate and the cell monolayers are lysed by addition of 150 µL lysis mixture (Genospectra) with incubation at 53° C. for 45 minutes. Following incubation, each lysate is thoroughly mixed and 5 µl (NS3 probe) or 10 µL (GAPDH probe) of each lysate is then transferred to the capture plate and analyzed by bDNA assay.
Branched DNA (bDNA) Assay […]
After subsequent addition of the chemilumigenic substrate (dioxetan), each plate is read by luminometer (Wallac 1420 Multilabel HTS Counter Victor 2). The luminescence signal is proportional to the amount of mRNA present in each lysate. In addition to the samples, cell lysate only (no probe) background controls are also included on each bDNA assay plate and the average signal from these control wells is subtracted from the sample reading prior to analysis. Percent of no drug control is determined for both the NS3 and GAPDH signals for each compound also. […]

Row | Compound | EC50
13 | O=C1C(C2=NS(=O)(=O)c3cnccc3N2)=C(O)[C@@H]2[C@H]3CC[C@H](C3)[C@@H]2N1Cc1ccc(F)cc1 [Example 64, (1R,2S,7R,8S)-5-(1,1-Dioxo-1,4-dihydro-1λ^6-pyrido[4,3-e][1,2,4]thiadiazin-3-yl)-3-(4-fluoro-benzyl)-6-hydroxy-3-aza-tricyclo[6.2.1.0^2,7]undec-5-en-4-one] | 100 to 1000 nM
14 | O=C1C(C2=NS(=O)(=O)c3ncccc3N2)=C(O)[C@@H]2[C@H]3CC[C@H](C3)[C@@H]2N1Cc1ccc(F)cc1 [Example 65, (1R,2S,7R,8S)-5-(1,1-Dioxo-1,4-dihydro-1λ^6-pyrido[3,2-e][1,2,4]thiadiazin-3-yl)-3-(4-fluoro-benzyl)-6-hydroxy-3-aza-tricyclo[6.2.1.0^2,7]undec-5-en-4-one] | 100 to 1000 nM

Test system: not given
Assay: not given
Settings: not given

Row | Compound | melting point
15 | CS(=O)(=O)Nc1ccc2c(c1)S(=O)(=O)N=C(C1=C(O)[C@@H]3[C@H]4CC[C@H](CC4)[C@@H]3N(Cc3ccc(F)cc3)C1=O)N2 (relative stereo) [Example 50, cis-N-{3-[3-(4-Fluoro-benzyl)-6-hydroxy-4-oxo-3-aza-tricyclo[6.2.2.0^2,7]dodec-5-en-5-yl]-1,1-dioxo-1,4-dihydro-1λ^6-benzo[1,2,4]thiadiazin-7-yl}-methanesulfonamide] | 203.8 to 205.7 °C
16 | CS(=O)(=O)Nc1ccc2c(c1)S(=O)(=O)N=C(C1=C(O)[C@@H]3C4CCC(CC4)[C@@H]3N(Cc3ccc(F)cc3)C1=O)N2 [Example 49, N-{3-[(2S,7R)-3-(4-Fluoro-benzyl)-6-hydroxy-4-oxo-3-aza-tricyclo[6.2.2.0^2,7]dodec-5-en-5-yl]-1,1-dioxo-1,4-dihydro-1λ^6-benzo[1,2,4]thiadiazin-7-yl}-methanesulfonamide] | 203.8 to 205.7 °C
